Reference: patent publication US4680285A, “Treatment of malignant tumors with 2-(β-D-ribofuranosylthiazole-4-carboxamide related compounds” (priority 1985, dated 1987)

Tested on: Lewis lung seed cells (brain tumors)
Experiment: Intracranially inoculated Lewis lung brain tumors in vivo, survival (Example 12)
Parameters: species or system AKD2 F1 mice
Conditions: for Treated Group Survival Time: control 9.6
From the text: For Example 12, compound 1 was given IP to a group of AKD2 F1 mice which were inflicted by intercranial inoculation with Lewis lung seed cells to establish brain tumors.
For this test, 32 control animals were used and no control animals survived beyond day eleven with a mean death data of day 9.6 for the controls. Water was used as the drug vehicle. For both the control group and the test group, tumors were induced on day zero with initiation of drug treatment on day one where compound 1 was given once daily for nine days. Test results are expressed as T/C as per example 5.

With `NC(=O)c1csc([C@@H]2O[C@H](CO)[C@@H](O)[C@H]2O)n1` [Compound 1, 2-β-D-Ribofuranosylthiazole-4-Carboxamide] the “Percent Treated Animals/Control Animals” value (25.0 mg/Kg IP once daily x9) was 172%, the “Treated Group Survival Time” value (25.0 mg/Kg IP once daily x9) was 16.6 days and the “Percent Treated Animals/Control Animals” value (37.5 mg/Kg IP once daily x9) was 166%. For the same molecule, the “Treated Group Survival Time” value (37.5 mg/Kg IP once daily x9) was 16.0 days, the “Percent Treated Animals/Control Animals” value (75 mg/Kg IP once daily x9) was 185% and the “Treated Group Survival Time” value (75 mg/Kg IP once daily x9) was 19.0 days. The “Percent Treated Animals/Control Animals” value (150 mg/Kg IP once daily x9) was 197%, the “Treated Group Survival Time” value (150 mg/Kg IP once daily x9) was 20.5 days and the “Percent Treated Animals/Control Animals” value (300 mg/Kg IP once daily x9) was 213%. The “Treated Group Survival Time” value (300 mg/Kg IP once daily x9) was 20.5 days, the “Percent Treated Animals/Control Animals” value (600 mg/Kg IP once daily x9) was 211% and the “Treated Group Survival Time” value (600 mg/Kg IP once daily x9) was 20.3 days. For the same molecule, the “Percent Treated Animals/Control Animals” value (700 mg/Kg IP once daily x9) was 211%, the “Treated Group Survival Time” value (700 mg/Kg IP once daily x9) was 20.3 days and the “Percent Treated Animals/Control Animals” value (800 mg/Kg IP once daily x9) was 221%. The “Treated Group Survival Time” value (800 mg/Kg IP once daily x9) was 21.3 days and the “effect on brain tumors” value (IP, once daily x9) was “reduction of the brain tumors”.
